Test results taken from patent US6521659B2, “Compositions containing a substituted indolealkanoic acid and an angiotensin converting enzyme inhibitor” (Institute for Pharmaceutical Discovery, LLC, priority 2000, dated 2003).
Like-named read-outs stand apart in the source and are kept apart here.

Assays:
diabetic (db/db) mice = assay: Blood glucose lowering in diabetic (db/db) mice; type: in vivo, mouse; conditions: for Blood glucose: n = 12
Procedure: The mice are obese, extremely hyperglycemic and also hyperinsulinemic.
Male db/db mice (8 weeks old) were obtained from Jackson Laboratories and were allowed to acclimate for 1 week before the experiment commenced. A sample of blood was collected from the tail after which plasma glucose was isolated by centrifigation and the glucose concentration was measured in the plasma enzymatically on the COBAS automated clinical analyzer equipped with a glucose kit that utilized hexokinas to quantitate the amount of glucose in a sample (Roche Diagnostic Systems, kit #47382). Mice with the lowest plasma glucose values were removed from the study and the remaining mice were randomized according to their individual plasma glucose values into 3 treatment groups (n=12 per group), control untreated db/db mice, 100 mg/kg/d compound treated db/db mice and 300 mg/kg/d compound treated db/db mice.
Treatment with the compound was carried out for 4 weeks during which time blood glucose levels were measured weekly from the tail using the One Touch II blood glucose meter (Lifescan, Inc). The blood glucose values of mice in the compound treated groups was compared to the blood glucose values of mice from the control untreated group by an analysis of variance followed by Dunett's Comparison Test (one-tailed).

[1] = test system: STZ treated diabetic minipigs; assay: Wound healing in STZ treated diabetic minipigs; type: in vivo, minipig; conditions: STZ diabetic minipigs with wounds, compared with untreated control STZ diabetic minipigs
Procedure: STZ treated diabetic minipigs having various wounds are administered the compound of Example 3. These animals are compared with control STZ diabetic minipigs also having wounds but that are not treated with the compound. […] Accordingly, the compounds of the invention are capable of promoting wound healing in diabetic mammals.

[2] = test system: streptozotocin-induced diabetic rats; assay: Serum/plasma triglyceride levels in streptozotocin-induced diabetic rats; type: in vivo, rat; conditions: 10 mg/kg/day
Procedure: Tests are conducted to determine the effect of compounds on serum triglyceride levels in streptozotocin-induced diabetic rats.
Control animals receive citrate buffer.
Two hours after STZ injection, food is returned.
The nondiabetic and diabetic control groups are administered vehicle.

rat aortic ring = assay: Rat aortic ring assay (anti-angiogenic activity); type: cell-based
Procedure: Final concentration of DMSO in all wells is 1%.
Statistical analysis conducted with Kruskal-Wallis Test and Dunns multiple comparisons

[3] = biological target: human aldose reductase (hALR2) (Homo sapiens, UniProt P15121); assay: Inhibition of human aldose reductase (hALR2), methods similar to Butera et al.; type: biochemical; conditions: for HALR1/hALR2: ratio of hALR1 IC50 to hALR2 IC50 (selectivity)
Procedure: Representative compounds of Formula Iwere tested for their potency, selectivity and efficacy as inhibitors of human aldose reductase.
(§1) Since high potency of test compounds as inhibitors of aldose reductase is desirable, low hALR2 IC50 values are sought. On the other hand, high potency of test compounds as inhibitors of aldehyde reductase is undesirable, and high ALR1 IC50s values are sought. Accordingly, the hALR1/hALR2 ratio is used to determine the selectivity of the test compounds. The importance of this selectivity is Described in Kotani, et al., J. Med. Chem. 40: 684, 1997.

[4] = biological target: T1, human aldehyde reductase (hALR1) (Homo sapiens, UniProt P14550); assay: Inhibition of human aldehyde reductase (hALR1), methods of Ishii et al.; type: biochemical
T1 sequence (P14550 1-325): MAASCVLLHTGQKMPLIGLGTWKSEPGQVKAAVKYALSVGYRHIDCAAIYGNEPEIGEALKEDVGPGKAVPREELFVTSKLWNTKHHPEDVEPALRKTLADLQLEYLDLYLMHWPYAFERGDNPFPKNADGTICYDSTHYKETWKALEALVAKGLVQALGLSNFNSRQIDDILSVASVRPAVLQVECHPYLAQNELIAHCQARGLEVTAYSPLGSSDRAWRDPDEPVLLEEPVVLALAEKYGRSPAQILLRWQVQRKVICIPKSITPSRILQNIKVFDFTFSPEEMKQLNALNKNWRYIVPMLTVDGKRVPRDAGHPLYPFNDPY
Procedure: In a second assay, a number of the same compounds were tested for their ability to inhibit aldehyde reductase (hALR1), a structurally related enzyme.
as §1, with “compounds.” for “compounds. The importance of this selectivity is Described in Kotani, et al., J. Med. Chem. 40: 684, 1997.”

## O=C(O)Cn1cc(Cc2nc3c(F)c(F)cc(F)c3s2)c2ccccc21 [Example 3, 3-(4,5,7-Trifluorobenzothiazol-2-yl)methyl-indole-N-acetic Acid]
Diabetic (db/db) mice; 100 mg/kg/d in diet, Week 0, mean ± SD
  Blood glucose: 323 ± 79 mg/dL
Diabetic (db/db) mice; 100 mg/kg/d in diet, Week 2, mean ± SD
  Blood glucose: 284 ± 75 mg/dL
Diabetic (db/db) mice; 100 mg/kg/d in diet, Week 3, mean ± SD
  Blood glucose: 258 ± 60 mg/dL
Diabetic (db/db) mice; 100 mg/kg/d in diet, Week 4, mean ± SD
  Blood glucose: 303 ± 79 mg/dL
Diabetic (db/db) mice; 100 mg/kg/d, after four weeks
  mean percent change in glucose with drug treatment (lowering): 12%
Diabetic (db/db) mice; 300 mg/kg/d in diet, Week 0, mean ± SD
  Blood glucose: 313 ± 52 mg/dL
Diabetic (db/db) mice; 300 mg/kg/d in diet, Week 2, mean ± SD
  Blood glucose: 240 ± 85 mg/dL
Diabetic (db/db) mice; 300 mg/kg/d in diet, Week 3, mean ± SD
  Blood glucose: 197 ± 77 mg/dL
Diabetic (db/db) mice; 300 mg/kg/d in diet, Week 4, mean ± SD
  Blood glucose: 207 ± 77 mg/dL
Diabetic (db/db) mice; 300 mg/kg/d, after four weeks
  mean percent change in glucose with drug treatment (lowering of blood glucose): 40%
[1]
  degree of wound healing: significant increase in the degree of wound healing
[2]; STZ diabetic rats, 10 mg/kg/d by gavage
  Triglyceride lowering compared to diabetic: 68%
[2]; po, 4 h
  Plasma triglycerides: 149 ± 29 mg/dL
Rat aortic ring
  Linear Microvascular Growth: 1.97 ± 0.66, n = 5 mm
Rat aortic ring; 50 µM
  Linear Microvascular Growth: 2.31 ± 0.71, n = 5 mm
Rat aortic ring; Prevention (Days 1-6), 50 micromolar, mean ± SD, n = 6
  Linear Microvascular Growth: 1.46 ± 0.48, n = 6 mm

## Cc1ccc2c(c1)c(Cc1nc3cc(C(F)(F)F)ccc3s1)cn2CC(=O)O [Example 12, 5-Methyl-3-(5-Trifluoromethylbenzothiazol-2-yl)methyl-indole-N-acetic Acid]
[3]
  IC50: 102 nM
  HALR1/hALR2: 98
[4]
  IC50: 10000 nM

## O=C(O)Cn1cc(Cc2cccc([N+](=O)[O-])c2)c2ccccc21 [Example 13, 3-(3-nitrophenyl)methyl-indole-N-acetic Acid]
[3]
  IC50: 73 nM
  HALR1/hALR2: 178
[4]; read-out: HALR1 (IC50)
  IC50: 13000 nM

## O=C(O)Cn1cc(Cc2nc3c(F)c(F)cc(F)c3s2)c2ccc(-c3ccccc3)cc21 [Example 16, 6-phenyl-3-(4,5,7-trifluorobenzothiazol-2-yl)methyl-indole-N-acetic Acid]
[3]
  IC50: 25 nM
  HALR1/hALR2: 248
[4]
  IC50: 6200 nM

## O=C(O)Cn1cc(Cc2nc3c(F)c(F)cc(F)c3s2)c2ccc(N3CCOCC3)cc21 [Example 18, 6-morpholino-3-(4,5,7-trifluorobenzothiazol-2-yl) methyl-indole-N-acetic Acid]
[3]
  HALR1/hALR2: >6,700
[3]; read-out: hALR2 (IC50)
  IC50: 15 nM
[4]; read-out: HALR1 (IC50)
  IC50: > 100000 nM

## O=C(O)Cn1cc(Cc2nc3cc(F)ccc3s2)c2ccccc21 [Example 23, 3-[5-Fluorbenzothiazole-2-yl]methyl-indole-N-acetic Acid]
[3]
  IC50: 9 nM
  HALR1/hALR2: 720
[4]
  IC50: 6500 nM

## CC(C(=O)O)n1cc(Cc2nc3c(F)c(F)cc(F)c3s2)c2ccccc21 (stereo not shown) [Example 25, 3-(4.5,7-trifluorobenzothiazol-2-yl)methyl-indole-N-2-propionic Acid]
[3]
  IC50: 160 nM

## O=C(O)CCn1cc(Cc2nc3c(F)c(F)cc(F)c3s2)c2ccccc21 [Example 26, 3-(4-5.7-trifluorobenzothiazol-2-yl)methyl-indole-N-3-propionic Acid]
[3]
  IC50: 17 nM

## O=C(O)Cn1cc(Cc2nc3cc(C(F)(F)F)ccc3s2)c2ccc(Br)cc21 [Example 27, 6-Bromo-3-(5-trifluoromethylbenzothiazol-2-yl)methyl-indole-N-acetic acid]
[3]
  IC50: 52 nM
  HALR1/hALR2: <96
[4]
  IC50: < 5000 nM

## COc1ccc2c(Cc3nc4c(F)c(F)cc(F)c4s3)cn(CC(=O)O)c2c1 [Example 28, 6-Methoxy-3-(4,5,7-trifluorobenzothiazol-2-yl)methyl-indole-N-acetic acid]
[3]
  IC50: 5 nM

## O=C(O)Cn1cc(Cc2nc3c(F)c(F)cc(F)c3s2)c2c(Cl)cccc21 [Example 29, 4-Chloro-3-(4,5,7-trifluorobenzothiazol-2yl) methyl-indole-N-acetic Acid]
[3]
  IC50: 11 nM

## COc1ccc2c(c1)c(Cc1nc3c(F)c(F)cc(F)c3s1)cn2CC(=O)O [Example 30, 5-Methoxy-3-(4,5,7-trifluorobenzothiazol-2-yl) methyl-indole-N-acetic Acid]
[3]
  IC50: 7.7 nM

## O=C(O)Cn1cc(Cc2nc3c(F)c(F)cc(F)c3s2)c2cc(Br)ccc21 [Example 31, 5-Bromo-3-(4,5.7-trifluorobenzothiazol-2-yl) methyl-indole-N-acetic acid]
[3]
  IC50: 13 nM
  HALR1/hALR2: 746
[4]
  IC50: 9700 nM

## O=C(O)Cn1cc(Cc2nc3ccc(Cl)cc3s2)c2ccccc21 [Example 32, 3-(6-chlorobenzothiazol-2-yl) methyl-indole-N-acetic Acid]
[3]
  IC50: 660 nM
